Measured values: patent US20070166547A1, “Use of a layer consisting of hydrophobic linear, or two-dimensional polycyclic aromatics as a barrier layer or an encapsulation and electric components constructed with a layer of this type and comprising organic polymers” (priority 2003, published 2007)

Columns and labels:
[1] = system: aggregation of thrombocytes; assay: ADP-induced aggregation of thrombocytes after intravenous administration (in vivo); set-up: species or system rabbit
Description: The experiments were carried out on male rabbits of the “Chinchilla” breed having a mass of 2.7±0.3 kg. 18-24 hours prior to the experiment they were deprived of feed while preserving free access to water.
To obtain plasma enriched with thrombocytes, blood was taken from a cut of a marginal vein of the rabbit ear, the sample was stabilized with 3.8% of sodium citrate solution in a ratio of 9:1 and centrifuged at 200 g (1000 rev/min) for 10 minutes. The top supernatant layer enriched with thrombocytes was transferred by an automatic dropper into a silicone test tube and kept at 37° C. The plasma enriched with thrombocytes contained, on the average, […]. If this content exceeded the specified 3×10^8 blood platelets in 1 liter, this sample was diluted to the necessary concentration with plasma deprived of thrombocytes, which was obtained by centrifuging blood at 650 g during 10 minutes.
The measurements of the optical density of the samples were made on two-channel aggregometer of the “Chronolog” Company (USA). A flask containing 490 mkl of plasma rich with thrombocytes was placed in a device, into which a magnetic agitator covered with Teflon was lowered. The index of maximum amplitude of aggregation (MA) in percent of a fall of the plasma optical density under effect of the aggregation inductor was recorded. The control index MA of plasma was compared with the MA of plasma incubated for 3 minutes with different concentrations of the compounds: from 10^−3 to 10^−7 in vitro experiments or with plasma obtained 15, 30, 60 and 120 minutes after intravenous administration of different doses of the compounds in vivo experiments.
The process of aggregation of thrombocytes was recorded with the help of a computer; on the monitor screen the there were depicted curves reflecting changes of the optical density of the plasma enriched which was taken as a standard 100% compared to the optical density of the non-thrombocyte plasma taken for 0% content of thrombocytes.
The antiaggregative capability of compounds 2, 15, 21, 37, according to the invention was tested in experiments in vivo. Introduced to the test animals intravenously were an aggregation inductor ADP at a concentration of 10^−5 M was and then the compounds according to the invention. The doses of the compounds were in a range from 15 to 60 mg/kg.
For leveling the different effects of the compounds in different days due the ambient temperature, humidity and other parameters, 2 animals of each series were taken for experiments every day. Under “series” there is understood a group of 6 animals used for studying one of the doses of the compounds.
The blood for obtaining plasma enriched with thrombocytes was taken from marginal vein of the rabbit ear: in the control group—directly before introducing the tested compounds; in investigated groups—15 minutes after introducing these compounds and then after 30, 60, 120 minutes and so on up to the moment when the effect of suppression of aggregation disappeared.
The quantity of thrombocytes was counted before the experiment and at the end thereof in each plasma sample.

[2] = Polarographic study of electrochemical reduction (electrochemical activity); type: physicochemical; conditions: for number of electrons participating in the reduction: calculated with the Geirovsky-Ilkovich equation; for i, mkA (polarographic wave current) / −E1/2, V (half-wave potential vs SCE): 37° C., forward trace, average for the group; for i, mkA (polarographic wave current): 9·10^−4 M; for half-wave potential more positive on reverse stroke than on forward stroke: reverse stroke vs forward stroke
Method in brief: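 DC polarography at 37 °C on a dropping mercury electrode (0.5 s drop) against SCE with a Pt auxiliary electrode. Compounds at 9·10^−4 M in N2-purged 2.0% NaCl at pH 7.0–7.6, scanned 0 to −0.5 V at 10.0 mV/s. E1/2 and ilim were determined graphically; electron number was derived by Heyrovsky–Ilkovič analysis.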

SMILES | MA, %, After 15 minutes ([1]; dose 15.0 mg/kg intravenously) | MA, %, After 30 minutes ([1]; dose 15.0 mg/kg intravenously) | MA, %, After 60 minutes ([1]; dose 15.0 mg/kg intravenously) | MA, %, After 120 minutes ([1]; dose 15.0 mg/kg intravenously) | MA, %, After 15 minutes ([1]; dose 30.0 mg/kg intravenously) | MA, %, After 30 minutes ([1]; dose 30.0 mg/kg intravenously) | MA, %, After 60 minutes ([1]; dose 30.0 mg/kg intravenously) | MA, %, After 120 minutes ([1]; dose 30.0 mg/kg intravenously) | MA, %, After 15 minutes ([1]; dose 60.0 mg/kg intravenously) | MA, %, After 30 minutes ([1]; dose 60.0 mg/kg intravenously) | MA, %, After 60 minutes ([1]; dose 60.0 mg/kg intravenously) | MA, %, After 120 minutes ([1]; dose 60.0 mg/kg intravenously) | number of electrons participating in the reduction [2] | i, mkA (polarographic wave current) ([2]; pH 7.0) | −E1/2, V (half-wave potential vs SCE) ([2]; pH 7.0) | i, mkA (polarographic wave current) ([2]; pH 7.2) | i, mkA (polarographic wave current) ([2]; pH 7.4) | −E1/2, V (half-wave potential vs SCE) ([2]; pH 7.4) | i, mkA (polarographic wave current) ([2]; pH 7.6) | −E1/2, V (half-wave potential vs SCE) ([2]; pH 7.6) | other results
Nc1ccnc2c(=O)n([C@@H]3O[C@H](CO)[C@@H](O)[C@H]3O)[nH]c(=O)c12 [Compound 2, 4-amino-7-(β-D-ribofuranosile)pyrido[2,3-d]-6H-pyridazine-5,8-dione] | 44.2 ± 2.0 % | 42.2 ± 1.6 % | 46.9 ± 1.7 % | 49.2 ± 2.0% | 45.3 ± 2.0 % | 43.7 ± 1.7 % | 40.1 ± 2.2 % | 59.7 ± 2.2% | 45.2 ± 1.2 % | 43.6 ± 2.0 % | 47.8 ± 1.5% | 48.0 ± 1.2% | – | – | – | – | – | – | – | – | –
Nc1cccc2c(=O)[nH][nH]c(=O)c12.[Na] [Compound 15, sodium salt of 5-amino-benzo[d]-3H-pyridazine-1,4-dione] | 42.8 ± 1.8 % | 41.8 ± 1.5 % | 45.6 ± 1.5 % | 48.3 ± 2.3 % | 43.2 ± 2.2 % | 41.8 ± 1.9 % | 37.8 ± 1.8 % | 58.1 ± 1.7% | 43.1 ± 1.5 % | 41.3 ± 1.5 % | 44.7 ± 0.8% | 47.2 ± 1.6% | 4.09 | 0.23 ± 0.03 mkA | 0.092 ± 0.02 V | 0.30 ± 0.01 mkA | 0.29 ± 0.02 mkA | 0.092 ± 0.02 V | 0.31 ± 0.02 mkA | 0.09 ± 0.01 V | −E1/2, V (half-wave potential vs SCE) ([2]; pH 7.2): 0.09 ± 0.01 V; half-wave potential more positive on reverse stroke than on forward stroke [2]: 30.0 mV
Nc1cnc2c(=O)n([C@@H]3O[C@H](CO)[C@@H](O)[C@H]3O)[nH]c(=O)c2n1.[Na] [Compound 21, sodium salt of 3-amino-7-(β-D-ribofuranosile)pyrazine[2,3-d]-6H-pyridazine-5,8-dione] | 43.5 ± 1.7 % | 43.3 ± 1.7 % | 46.7 ± 1.5 % | 49.1 ± 1.7% | 46.7 ± 1.9 % | 45.4 ± 1.8 % | 45.0 ± 1.9% | 60.3 ± 2.1% | 45.1 ± 0.9 % | 43.2 ± 2.0 % | 47.3 ± 1.6% | 48.3 ± 1.5% | – | – | – | – | – | – | – | – | –
O=c1[nH]n([C@@H]2O[C@H](CO)[C@@H](O)[C@H]2O)c(=O)c2nc(O)cnc12.[Na].[Na] [Compound 23, disodium salt of 2-hydroxy-7-(β-D-ribofuranosile)pyrazine[2,3-Cl]-6H-pyridazine-5,8-dione] | – | – | – | – | – | – | – | – | – | – | – | – | 3.72 | 0.32 ± 0.03 mkA | 0.16 ± 0.02 V | 0.33 ± 0.04 mkA | 0.34 ± 0.03 mkA | 0.175 ± 0.01 V | 0.34 ± 0.02 mkA | 0.16 ± 0.015 V | −E1/2, V (half-wave potential vs SCE) ([2]; pH 7.2): 0.19 ± 0.02 V; half-wave potential more positive on reverse stroke than on forward stroke [2]: 20.0 mV
O=c1[nH][nH]c(=O)c2nccnc12.[Li] [Compound 25, lithium salt of pyrazine[2,3-d]-6H-pyridazine-5,8-dione] | – | – | – | – | – | – | – | – | – | – | – | – | 3.72 | 0.32 ± 0.03 mkA | 0.16 ± 0.02 V | 0.33 ± 0.04 mkA | 0.34 ± 0.03 mkA | 0.175 ± 0.01 V | 0.34 ± 0.02 mkA | 0.16 ± 0.015 V | −E1/2, V (half-wave potential vs SCE) ([2]; pH 7.2): 0.19 ± 0.02 V; half-wave potential more positive on reverse stroke than on forward stroke [2]: 20.0 mV
Nc1ncc2c(=O)[nH][nH]c(=O)c2n1 [Compound 36, 2-amino-pyrimido[4,5-d]-6H-pyridazine-5,8-dione] | – | – | – | – | – | – | – | – | – | – | – | – | 3.5 | 0.30 ± 0.05 mkA | 0.08 ± 0.02 V | 0.26 ± 0.02 mkA | 0.30 ± 0.03 mkA | 0.085 ± 0.02 V | 0.30 ± 0.02 mkA | 0.09 ± 0.02 V | –
O=c1[nH][nH]c(=O)c2c(Br)ncnc12.[K] [Compound 37, potassium salt of 4-bromine-pyrimido[4,5-D]-6H-pyridazine-5,8-dione] | 42.9 ± 1.6 % | 41.9 ± 1.6 % | 45.9 ± 1.6% | 48.7 ± 2.1% | 43.5 ± 2.0 % | 42.0 ± 1.4 % | 41.6 ± 1.4 % | 58.4 ± 1.7% | 43.4 ± 1.8 % | 42.4 ± 0.7 % | 46.2 ± 2.0% | 47.3 ± 1.7% | – | – | – | – | – | – | – | – | –
